# Laboratory results from article PMC8968665, “Verteporfin is a substrate-selective γ-secretase inhibitor that binds the amyloid precursor protein transmembrane domain” (The Journal of Biological Chemistry, 2022).
# Entries after “also recorded” stand apart in the source; their conditions may differ.
# Columns and labels:
# C99 T761A = tested on: T1, C99 T761A; experiment: TROSY NMR titration of C99 T761A mutant by verteporfin; assay type: binding, human; conditions: LMPG micelles, up to 300 µM verteporfin, n=1
# T1 construct: the transmembrane 99 residue C-terminal (C99) domain; hexa-His; made in house
# Method: (§1) A Bruker Avance III 600 MHz NMR spectrometer equipped with a cryoprobe (CPTCI) and automated sample changer (SampleJet) was used to collect NMR spectra. Sample details are described above. For high-throughput screening data collection, the ^15N-^1H BEST-TROSY (b_trosy3gpph.2) experiment with 64 scans for each of 96 increments and a relaxation delay of 200 ms was run at 318 K for a total data acquisition time of 35 min per sample. To achieve enhanced signal-to-noise ratio, follow-up titrations and control experiments were conducted using the BEST-TROSY pulse program with 200 scans per 96 increments at 318 K, for a total data acquisition time of 110 min per sample. Data were processed using Bruker Topspin 3.6 using a Gaussian window function with a line broadening of -10 and a Gaussian max of 0.1 in both dimensions. NMR data were then further processed and analyzed using NMR-FAM SPARKY, plotted using GraphPad Prism 9, and prepared for publication figures using Affinity Designer.
# [1] = tested on: T2, Notch-1 TM/JM (residues 1721–1771); experiment: TROSY NMR titration of Notch-1 TM/JM by verteporfin; assay type: binding
# T2 construct: flanked by its juxtamembrane segments (residues 1721–1771, “Notch-1 TM/JM”); made in house; host or cells: E. coli BL21DE3 Star, pET21b
# Method: as §1
# 2D ^15 N-^1H HSQC NMR data used to calculate dissociations constant (KD) values by first normalizing 2D data using the established formula ([78]) (Equation 1):(1) δ(1H,15N)=√(1/2[δ2H+.14∗δ2N]) Where δ(1H,15N) is the square root of linear chemical shifts in each respective dimension, δH and δN with the Nitrogen normalization factor of 0.14.
# C99 = tested on: T3, C99; experiment: Glutaraldehyde cross-linking of verteporfin–C99 mixtures; set-up: species or system human; conditions: LMPG micelles, versus DMSO control, n=3
# T3 construct: the transmembrane 99 residue C-terminal (C99) domain; made in house; host or cells: E. coli BL21DE3, pET21b
# Method: C-terminally His-tagged C99 was expressed from E. coli as mentioned above, and the sample was eluted into a buffer containing 0.1% w/v LMPG, 350 mM Imidazole, 100 mM NaCl, pH 7.8. The protein sample was buffer swapped into GA X-linking buffer containing 0.25% w/v LMPG, 250 mM imidazole, 100 mM NaCl, pH 7.8, and the protein was concentrated to a stock of 300 μM C99. Protein stocks were either used right away or flash frozen in LN2 and stored at −80 °C until further use.
# On the day of the experiment, fresh glutaraldehyde (from 25% w/v ampoule) was used to prepare serial dilutions and stored on ice. Reaction volumes were set at 50 μl, containing 30 μM C99, 25 mM Imidazole, 100 mM NaCl, pH 7.8, and 2.5% w/v LMPG. For a typical GA reaction setup, the following components were added to Eppendorf tubes in this specific order: 5 μl of 300 μM C99 was added to the bottom of the tube, followed by 6 μl of 20% w/w LMPG solution, then the sample was diluted to 50 μl using 39 μl of GA X-linking buffer. The sample was mixed by vortex and allowed to sit for at least 30 min. After incubation, 1 μl of Verteporfin stock (typically 10 mM in DMSO) was added to the mixture, vortexed, and allowed to incubate for at least another 30 min in the dark. […] Then, SDS loading buffer was added directly to the reaction tubes, and the samples were visualized using SDS-PAGE and analyzed by densitometry using ImageJ. […]
# [2] = target: T4, γ-secretase cleavage of Notch-1 TM/JM (Homo sapiens, UniProt P49768+Q92542+Q96BI3+Q9NZ42); experiment: γ-Secretase assay, Notch-1 TM/JM cleavage, NICD by anti-V1744 Western blot; assay type: biochemical
# T4 construct: made in house; host or cells: Notch-1 TM/JM: E. coli BL21DE3 Star
# T4 sequence (Q92542 34-709, other chains not shown): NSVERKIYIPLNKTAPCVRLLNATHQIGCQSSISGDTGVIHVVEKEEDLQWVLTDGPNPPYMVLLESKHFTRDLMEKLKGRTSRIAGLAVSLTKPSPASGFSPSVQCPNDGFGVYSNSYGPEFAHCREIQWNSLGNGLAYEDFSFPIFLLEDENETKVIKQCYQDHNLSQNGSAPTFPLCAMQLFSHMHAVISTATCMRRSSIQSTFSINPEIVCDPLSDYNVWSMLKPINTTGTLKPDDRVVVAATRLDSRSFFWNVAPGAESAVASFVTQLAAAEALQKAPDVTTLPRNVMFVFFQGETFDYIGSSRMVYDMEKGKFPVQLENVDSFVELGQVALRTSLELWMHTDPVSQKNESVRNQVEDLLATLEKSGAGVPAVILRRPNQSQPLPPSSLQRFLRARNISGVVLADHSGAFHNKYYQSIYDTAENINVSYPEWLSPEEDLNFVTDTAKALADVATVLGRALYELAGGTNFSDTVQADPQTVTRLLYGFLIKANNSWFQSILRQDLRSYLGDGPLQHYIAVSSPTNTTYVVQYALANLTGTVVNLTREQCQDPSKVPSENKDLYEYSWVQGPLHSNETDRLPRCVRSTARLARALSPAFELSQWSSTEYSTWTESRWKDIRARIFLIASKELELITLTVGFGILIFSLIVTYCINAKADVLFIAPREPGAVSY
# T4 sequence (Q96BI3 whole entry, other chains not shown): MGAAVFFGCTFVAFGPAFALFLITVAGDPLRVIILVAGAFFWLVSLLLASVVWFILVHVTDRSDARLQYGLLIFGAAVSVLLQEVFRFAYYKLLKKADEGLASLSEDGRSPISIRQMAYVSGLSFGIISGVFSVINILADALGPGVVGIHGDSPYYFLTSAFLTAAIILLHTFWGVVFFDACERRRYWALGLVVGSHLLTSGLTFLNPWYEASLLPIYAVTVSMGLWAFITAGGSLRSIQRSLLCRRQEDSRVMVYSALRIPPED
# T4 sequence (Q9NZ42 whole entry, other chains not shown): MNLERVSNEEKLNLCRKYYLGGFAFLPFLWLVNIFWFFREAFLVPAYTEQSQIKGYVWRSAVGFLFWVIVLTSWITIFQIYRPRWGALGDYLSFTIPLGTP
# Method: The γ-secretase-dependent proteolysis assays with both substrates (C100-FLAG and HexaHis Notch 1 JM/TM) were performed in a weak zwitterionic detergent (CHAPSO, 3-[(3- cholamidopropyl)dimethylammonio]-2-hydroxy-1-propanesulfonate) solubilized conditions ([79], [80]). C100 is C99 with an added N-terminal Met residue. Stock solution of purified γ-secretase ([81], [82]) was diluted to 30 nM in standard assay buffer containing 50 mM HEPES (pH 7.0), 150 mM NaCl, 0.1% DOPC (phosphatidylcholine), 0.025% DOPE (phosphatidylethanolamine), and 0.25% CHAPSO) and incubated at 37 °C for 30 min, whereupon stock solution of verteporfin or inhibitor (LY411,575) was added to achieve the desired concentration with 1% final DMSO concentration. Proteolytic reactions were initiated by adding purified substrates (either C100-FLAG(79) or HexaHis-Notch 1 JM/TM(77)) and incubating at 37 °C (16 h for C100Flag and 4 h for HexaHis-Notch 1 JM/TM). Reactions were quenched with SDS, and the cleaved intracellular domain products (AICD-FLAG released from C100-FLAG or truncated intracellular domain (NICD) released from the proteolysis of Hexa-His Notch 1 JM/TM) were visualized by Western blot using specific primary antibodies, anti-FLAG antibody for FLAG-tagged AICD, and neoepitope-specific anti-V1744 antibody for NICD ([80], [83], [84]).
substance,measurement,setting,value
verteporfin,binding to C99 T761A,C99 T761A,complete lack of binding; also recorded: binding was disrupted
same,binding to Notch-1 TM/JM,[1]; D6PC/DMPC bicelles,only minor spectral changes at very high concentrations; also recorded: does not bind
same,binding to Notch-1 TM/JM,[1]; DDMB micelles,little change in the spectrum of Notch-1 until a concentration of 300 μM; also recorded: does not bind
same,binding to Notch-1 TM/JM,"[1]; LMPG micelles, same conditions as C99 titration",does not bind; also recorded: only minor perturbations of Notch resonances
same,binding to Notch-1 transmembrane domain,[1]; general statement,did not bind; also recorded: not to bind
same,change in C99 oligomeric state (cross-linking),C99,no change in oligomeric state; also recorded: no increase in higher-order C99 species
same,reduction of Notch-1 cleavage at saturating verteporfin,[2]; 30 nM γ-secretase,approximately 75%
same,IC50,"[2]; 30 nM γ-secretase, Notch-1 TM/JM, 4 h, 37 °C, n = 3, estimated, at concentrations above 200 μM, read-out: IC50, inhibition of NICD production",240 ± 66 µM
same,inhibition of Notch-1 cleavage,[2]; verteporfin at 164 μM (IC50 for C99 cleavage),no inhibition
same,effect on Notch-1 cleavage at low concentrations,"[2]; verteporfin below ca. 200 μM, relative to 0 verteporfin",first activated; also recorded: enhanced; also recorded: stimulate
